Here are results for 20 compounds from US20090062294A1, “HETEROARYL-SUBSTITUTED UREA MODULATORS OF FATTY ACID AMIDE HYDROLASE” (priority 2007, published 2009).

The target in one assay is T1, rat FAAH (Rattus norvegicus, UniProt P97612).
T1 sequence (P97612 1-579): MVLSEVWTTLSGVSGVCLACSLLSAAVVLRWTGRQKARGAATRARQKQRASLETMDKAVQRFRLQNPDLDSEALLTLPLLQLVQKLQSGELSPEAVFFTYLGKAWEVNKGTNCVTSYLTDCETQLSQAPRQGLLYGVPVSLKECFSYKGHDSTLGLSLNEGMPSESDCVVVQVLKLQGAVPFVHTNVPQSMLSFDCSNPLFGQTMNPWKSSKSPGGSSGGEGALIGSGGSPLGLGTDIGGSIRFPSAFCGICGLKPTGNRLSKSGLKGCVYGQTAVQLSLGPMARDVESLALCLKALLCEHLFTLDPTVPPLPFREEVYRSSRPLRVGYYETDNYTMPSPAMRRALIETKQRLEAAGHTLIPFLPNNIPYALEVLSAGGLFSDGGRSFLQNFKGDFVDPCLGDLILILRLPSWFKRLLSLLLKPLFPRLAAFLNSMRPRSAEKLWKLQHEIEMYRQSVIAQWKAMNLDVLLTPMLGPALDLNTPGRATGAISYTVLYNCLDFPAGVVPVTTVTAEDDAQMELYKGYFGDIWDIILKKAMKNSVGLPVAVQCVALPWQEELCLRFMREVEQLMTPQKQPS
As to the kind of experiment: Assay Method 2: FAAH assay, 3H-anandamide hydrolysis in homogenate of SK-N-MC cells transfected with rat FAAH. The format is biochemical. Particulars: average of results, > = solubility limit or highest concentration tested. The method, boiled down:
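Homogenate of SK-N-MC cells stably transfected with rat FAAH cDNA (G418-selected clones) in pH 9 Tris/EDTA/glycerol/Triton buffer. Incubated with compound and 80 nM final [3H]-anandamide for 1 h at rt. Released [3H]-ethanolamine separated from substrate on activated charcoal filters and counted by scintillation.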

Assay [1] relates to mechanical (tactile) allodynia in the left hind paw. As to the kind of experiment: Assay Method 3: Rat Mild Thermal Injury Model (MTI), mechanical allodynia. The format is in vivo, Sprague-Dawley rats. The following applies: 0.5 h after administration. The text has this:
Assay Method 3—Rat Mild Thermal Injury Model (MTI)
Pathogen-free, male albino Sprague-Dawley rats were purchased from Harlan Industries (San Diego, Calif.) and maintained on a 12-h light/dark cycle (lights on at 9:00 AM and off at 9:00 PM) in a climate-controlled room. Food and water were available ad libitum up to the time of the testing.
Under isoflurane/oxygen anesthesia, a first-degree burn injury (erythema without blistering) was produced as follows: the plantar surface of the rat's left hind paw was placed on water-dampened 56° C. hotplate for 20 seconds and steady contact was maintained by applying an 84 g weight to the dorsum (after Nozaki-Taguchi & Yaksh, Neurosci. Lett. 1998, 254, 25-28).
Mild thermal injury results in mechanical allodynia in the left hind paw. Mechanical (tactile) allodynia was assessed by determining the median threshold at which the affected paw was withdrawn from graded stimuli (von Frey filaments ranging from 0.41 to 15.8 g) applied perpendicularly with sufficient force to bend slightly and held for 2-3 seconds against the proximal half of the third and fourth toe surfaces through wire-mesh observation cages. Paw flinching during or immediately following the removal of the stimulus was considered a positive response. A paw withdrawal threshold (PWT) was determined by sequentially increasing and decreasing the stimulus strength and analyzing withdrawal data using an adaptation of the Dixon up-down method, as described (Chaplan et al., J. Neurosci. 1994, 53, 55-63). Rats were included in the study only if their baseline PWT was 3.1623 g or lower (4.5 logarithmically).
Rats were tested for pre-injury thresholds prior to mild thermal injury and again for baseline thresholds after development of mechanical allodynia. Immediately after baseline measurement, test compound or vehicle was administered orally and the measurement was repeated at 0.5 h after administration. The tactile thresholds (log value) were converted to percent of a maximum possible effect ( %MPE): % MPE=[Threshold(t)−Threshold(baseline)]*100/[Threshold(pre)−Threshold(baseline)], where t=post-treatment time. Data were expressed as mean±standard error of the mean (S.E.M.). Statistical analysis was performed using two-way ANOVA with repeated measures with a significance level of p<0.05.
Results for compounds tested in this assay are presented in Table 2, as an average of results obtained. Compounds were tested in free base, hydrochloride salt, and/or trifluoroacetic acid salt forms.

Assay [2] deals with T2, FAAH (Homo sapiens, UniProt O00519).
T2 sequence (O00519 1-579): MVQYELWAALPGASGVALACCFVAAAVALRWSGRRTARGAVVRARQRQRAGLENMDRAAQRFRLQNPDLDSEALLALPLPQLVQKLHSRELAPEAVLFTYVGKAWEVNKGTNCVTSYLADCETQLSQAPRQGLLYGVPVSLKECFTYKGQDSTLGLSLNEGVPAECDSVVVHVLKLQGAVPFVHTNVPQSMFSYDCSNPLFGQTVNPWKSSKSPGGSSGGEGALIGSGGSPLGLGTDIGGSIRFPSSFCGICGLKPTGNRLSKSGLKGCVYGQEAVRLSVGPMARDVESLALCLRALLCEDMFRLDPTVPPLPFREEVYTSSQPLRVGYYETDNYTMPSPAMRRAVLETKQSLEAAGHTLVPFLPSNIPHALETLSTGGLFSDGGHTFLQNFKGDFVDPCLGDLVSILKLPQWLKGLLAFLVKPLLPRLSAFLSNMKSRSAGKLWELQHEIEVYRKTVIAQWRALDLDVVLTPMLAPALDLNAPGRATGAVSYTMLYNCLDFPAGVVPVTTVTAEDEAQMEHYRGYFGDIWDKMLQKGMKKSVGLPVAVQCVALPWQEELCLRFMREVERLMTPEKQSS
As to the kind of experiment: Assay Method 1: FAAH assay, 3H-anandamide hydrolysis in homogenate of T84 cells or SK-N-MC cells transfected with human FAAH. The format is biochemical. The following applies: average of results, > = solubility limit or highest concentration tested. The method, boiled down: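 Homogenates of T84 cells or of SK-N-MC cells stably transfected with human FAAH (G418-selected) were prepared in pH 9 Tris/EDTA/glycerol/Triton buffer. They were incubated with compound and 80 nM final ^3H-anandamide for 1 h at rt. Released ^3H-ethanolamine was separated on activated charcoal and counted by scintillation.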

The subject of assay [3] is thermal nociception. Particulars: rats; cited from earlier work.
The target of assay [4] is T2, FAAH. Particulars: cited from earlier work.
The test system of assay [5] is thermal nociception. Particulars: rats; cited from earlier work. The source holds these as a separate data set.

A word on the IC50: it is the concentration that inhibits the measured activity by half. Low values mean greater potency, high ones weaker potency.

Structures are written as SMILES. Counter-ions that a name gives are not always drawn.

For the compound `O=C(Nc1noc2ccccc12)N1CCN(Cc2cccc(Oc3ccc(Cl)cc3)c2)CC1` [Example 36, 4-[3-(4-Chloro-phenoxy)-benzyl]-piperazine-1-carboxylic acid benzo[d]isoxazol-3-ylamide trifluoroacetic acid salt], the IC50 against rat FAAH came to 10 nM. Further, the “% MPE” value in assay [1] (20 mg/Kg p.o., mean +/- S.E.M.) is 38 +/− 13%.

As for `O=C(Nc1ccon1)N1CCN(Cc2cccc(Oc3ccc(Cl)cc3)c2)CC1` [Example 46, 4-[3-(4-Chloro-phenoxy)-benzyl]-piperazine-1-carboxylic acid isoxazol-3-ylamide trifluoroacetic acid salt], in assay [1] (6 mg/Kg p.o.), the “% MPE” value amounted to 0%.

With `O=C(Nc1cnccn1)N1CCN(Cc2cccc(Oc3ccc(Cl)cc3)c2)CC1` [Example 58, 4-[3-(4-Chloro-phenoxy)-benzyl]-piperazine-1-carboxylic acid pyrazin-2-ylamide trifluoroacetic acid salt], the IC50 on rat FAAH was determined as 9 nM. Moreover, the “% MPE” value in assay [1] (20 mg/Kg p.o., mean +/- S.E.M.) was 52 +/− 7%.

Consider `O=C(Nc1cnccn1)N1CCN(Cc2cc3ccccc3o2)CC1` [Example 230, 4-Benzofuran-2-ylmethyl-piperazine-1-carboxylic acid pyrazin-2-ylamide], for which the values for the IC50 on FAAH [2] and on rat FAAH were 4000 nM and 6000 nM, respectively.

Take `O=C(Nc1cnccn1)N1CCN(Cc2cccc(Oc3ccc(F)c(F)c3)c2)CC1` [Example 231, 4-[3-(3,4-Difluorophenoxy)benzyl]-N-pyrazin-2-ylpiperazine-1-carboxamide]: the IC50 turned out to be 130 nM against FAAH [2] and 3600 nM on rat FAAH.

Regarding `O=C(Nc1cnccn1)N1CCN(Cc2cccc(Oc3ccc4ncccc4c3)c2)CC1` [Example 232, N-Pyrazin-2-yl-4-[3-(quinolin-6-yloxy)benzyl]piperazine-1-carboxamide], the values for the IC50 against FAAH [2] and against rat FAAH were 40 nM and 240 nM, respectively.

In the case of `O=C(Nc1cnccn1)N1CCN(Cc2cccc(Oc3ccc(OC(F)(F)F)cc3)c2)CC1` [Example 233, N-Pyrazin-2-yl-4-{3-[4-(trifluoromethoxy)phenoxy]benzyl}piperazine-1-carboxamide], the half-inhibitory concentration (IC50) was determined as 10 nM on FAAH [2] and 140 nM on rat FAAH.

In the case of `O=C(Nc1cnccn1)N1CCN(Cc2cccc(Oc3ccc(SC(F)(F)F)cc3)c2)CC1` [Example 234, N-Pyrazin-2-yl-4-(3-{4-[(trifluoromethyl)sulfanyl]phenoxy}benzyl)-piperazine-1-carboxamide], the figures for the IC50 against FAAH [2] and on rat FAAH were 6 nM and 12 nM, respectively.

Take `N#Cc1cccc(Oc2cccc(CN3CCN(C(=O)Nc4cnccn4)CC3)c2)c1` [Example 235, 4-[3-(3-Cyanophenoxy)benzyl]-N-pyrazin-2-ylpiperazine-1-carboxamide]: the IC50 against FAAH [2] was 600 nM; on rat FAAH, 6000 nM.

As to `N#Cc1ccc(Oc2cccc(CN3CCN(C(=O)Nc4cnccn4)CC3)c2)cc1C(F)(F)F` [Example 236, 4-{3-[4-Cyano-3-(trifluoromethyl)phenoxy]benzyl}-N-Pyrazin-2-ylpiperazine-1-carboxamide], the half-maximal inhibitory concentration (IC50) was 300 nM against FAAH [2] and 8000 nM at rat FAAH.

As to `O=C(Nc1cnccn1)N1CCN(Cc2cccc(Oc3ccc4c(c3)OC(F)(F)O4)c2)CC1` [Example 237, 4-{3-[(2,2-Difluoro-1,3-benzodioxol-5-yl)oxy]benzyl}-N-pyrazin-2-ylpiperazine-1-carboxamide], the IC50 on FAAH [2] was 5 nM; against rat FAAH, 30 nM.

Consider `O=C(Nc1cnccn1)N1CCN(Cc2cccc(Oc3ccccc3Cl)c2)CC1` [Example 238, 4-[3-(2-Chlorophenoxy)benzyl]-N-pyrazin-2-ylpiperazine-1-carboxamide], for which the values for the 50% inhibitory concentration (IC50) against FAAH [2] and against rat FAAH were 200 nM and 1600 nM, respectively.

With `O=C(Nc1cnccn1)N1CCN(Cc2ccc3ccccc3n2)CC1` [Example 239, N-Pyrazin-2-yl-4-(quinolin-2-ylmethyl)piperazine-1-carboxamide], the IC50 on FAAH [2] is 700 nM; against rat FAAH, 6000 nM.

As for `O=C(Nc1cnccn1)N1CCN(Cc2cccc(Oc3cccc(Br)c3)c2)CC1` [Example 240, 4-[3-(3-Bromophenoxy)benzyl]-N-pyrazin-2-ylpiperazine-1-carboxamide], the IC50 against FAAH [2] worked out at 20 nM; against rat FAAH it was 80 nM.

Regarding `O=C(Nc1cnccn1)N1CCN(Cc2cccc(Oc3ccc(F)c(C(F)(F)F)c3)c2)CC1` [Example 241, 4-{3-[4-Fluoro-3-(trifluoromethyl)phenoxy]benzyl}-N-pyrazin-2-ylpiperazine-1-carboxamide], the IC50 was determined as 8 nM at FAAH [2] and 370 nM against rat FAAH.

On to `O=C(Nc1cnccn1)N1CCN(Cc2cccc(Oc3cccc(OC(F)(F)F)c3)c2)CC1` [Example 242, N-Pyrazin-2-yl-4-{3-[3-(trifluoromethoxy)phenoxy]benzyl}piperazine-1-carboxamide], for which the IC50 against FAAH [2] is 9 nM; on rat FAAH it was 50 nM.

Turning to `O=C(Nc1nccnc1Cl)N1CCN(Cc2cccc(Oc3ccc(Cl)cc3)c2)CC1` [Example 243, 4-[3-(4-Chlorophenoxy)benzyl]-N-(3-chloropyrazin-2-yl)piperazine-1-carboxamide], the results for the IC50 on FAAH [2] and on rat FAAH were 2 nM and 9 nM, respectively.

With `O=C(Nc1cc(-c2ccccc2)[nH]n1)N1CCN(Cc2cccc(Oc3ccc(Cl)cc3)c2)CC1` [Example 244, 4-[3-(4-Chlorophenoxy)benzyl]-N-(5-phenyl-1H-pyrazol-3-yl)piperazine-1-carboxamide trifluoroacetate salt], the IC50 is 1400 nM against FAAH [2] and 7000 nM at rat FAAH.

At rat FAAH, `O=C(Nc1cccnn1)N1CCN(Cc2cccc(Oc3ccc(Cl)cc3)c2)CC1` [Example 246, 4-[3-(4-Chloro-phenoxy)-benzyl]-piperazine-1-carboxylic acid pyridazin-3-ylamide] displayed a concentration for half-maximal inhibition (IC50) of 199 nM. Also, the “% MPE” value in assay [1] (20 mg/Kg p.o., mean +/- S.E.M.) is 32 +/− 3%.

Take `O=C(CCCCCCc1ccccc1)c1ncc(-c2ccccn2)o1` [OL-135]: in the assay on thermal nociception [3], the “analgesic efficacy/activity in hot plate test” value is on record as “analgesic activity”. In addition, the “inhibition of FAAH” value at FAAH [4] is given as “potent inhibitor”. The “analgesic activity in tail emersion test” value in the assay on thermal nociception [5] was “analgesic activity”.
